Measurements published in ChEMBL document CHEMBL3885861, “Open TG-GATES”.

Organism: Rattus norvegicus
Experiment: Open TG-GATES - Regimen: Single
Assay type: toxicity, organism-based, Sprague-Dawley
Parameters: regimen Single, gender Male, age 6 weeks
Details: in vivo, po, route gavage; for APTT / Bas / Eos / Fbg / Hb / Ht / Lym / MCH / MCHC / MCV / Mono / Neu / PT / Plat / RBC / Ret / WBC: tissue Blood; for KIDNEY_L / KIDNEY_R / KIDNEY_TOTAL: tissue Kidney; for LIVER: tissue Liver; for A/G / ALP / ALT / AST / BUN / CRE / Ca / Cl / DBIL / GLC / IP / K / LDH / Na / PL / RALB / TBIL / TC / TG / TP / gamma-GTP: tissue Plasma
[1] = 0 mg/kg, 3 h, dose level Control
[2] = 0 mg/kg, 6 h, dose level Control
[3] = 0 mg/kg, 9 h, dose level Control
[4] = 0 mg/kg, 24 h, dose level Control

## OCCOCCN1CCN(C(c2ccccc2)c2ccc(Cl)cc2)CC1 (centres undefined) [HYDROXYZINE]
[1]
  TERMINAL_BW: 191.8 g
  APTT: 16.4 s
  Bas: 0%
  Eos: 0.8%
  Fbg: 287 mg/dL
  Hb: 13.2 g/dL
  Ht: 41%
  Lym: 78%
  MCH: 21.5 pg
  MCHC: 32.3%
  MCV: 66.6 fL
  Mono: 3%
  Neu: 17.4%
  PT: 15.4 s
  Plat: 120.7 x10_4/uL
  RBC: 616 x10_4/ul
  Ret: 8.7%
  WBC: 71.8 x10_2/uL
  KIDNEY_L: 0.9 g
  KIDNEY_R: 0.9 g
  KIDNEY_TOTAL: 1.7 g
  LIVER: 8.6 g
  A/G: 0.8
  ALP: 1501.4 IU/L
  ALT: 41 IU/L
  AST: 73 IU/L
  BUN: 9 mg/dL
  CRE: 0.2 mg/dL
  Ca: 10.9 mg/dL
  Cl: 106 meq/L
  DBIL: 0.012 mg/dL
  GLC: 176.8 mg/dL
  IP: 9.2 mg/dL
  K: 4.2 meq/L
  LDH: 61.8 IU/L
  Na: 141.8 meq/L
  PL: 138.6 mg/dL
  RALB: 2.5 g/dL
  TBIL: 0.056 mg/dL
  TC: 75.4 mg/dL
  TG: 68.8 mg/dL
  TP: 5.4 g/dL
  gamma-GTP: 1 IU/L
[2]
  TERMINAL_BW: 194.9 g
  APTT: 16.3 s
  Bas: 0%
  Eos: 0.4%
  Fbg: 298.6 mg/dL
  Hb: 13.1 g/dL
  Ht: 40.8%
  Lym: 76.2%
  MCH: 21.7 pg
  MCHC: 32.1%
  MCV: 67.5 fL
  Mono: 2.4%
  Neu: 20.4%
  PT: 15.3 s
  Plat: 116.6 x10_4/uL
  RBC: 604 x10_4/ul
  Ret: 9%
  WBC: 60.3 x10_2/uL
  KIDNEY_L: 0.9 g
  KIDNEY_R: 0.9 g
  KIDNEY_TOTAL: 1.8 g
  LIVER: 8.5 g
  A/G: 0.9
  ALP: 1502.2 IU/L
  ALT: 36.4 IU/L
  AST: 68.8 IU/L
  BUN: 9.2 mg/dL
  CRE: 0.2 mg/dL
  Ca: 10.9 mg/dL
  Cl: 105.2 meq/L
  DBIL: 0.012 mg/dL
  GLC: 183.6 mg/dL
  IP: 9.9 mg/dL
  K: 4.2 meq/L
  LDH: 56.2 IU/L
  Na: 141.6 meq/L
  PL: 147.6 mg/dL
  RALB: 2.5 g/dL
  TBIL: 0.058 mg/dL
  TC: 81.4 mg/dL
  TG: 52.6 mg/dL
  TP: 5.3 g/dL
  gamma-GTP: 0.8 IU/L
[3]
  TERMINAL_BW: 191 g
  APTT: 16.5 s
  Bas: 0%
  Eos: 0.8%
  Fbg: 260.4 mg/dL
  Hb: 12.9 g/dL
  Ht: 39.9%
  Lym: 73.4%
  MCH: 20.5 pg
  MCHC: 32.4%
  MCV: 63.5 fL
  Mono: 2.6%
  Neu: 22.4%
  PT: 15.2 s
  Plat: 110.7 x10_4/uL
  RBC: 631.2 x10_4/ul
  Ret: 8.2%
  WBC: 82.7 x10_2/uL
  KIDNEY_L: 0.9 g
  KIDNEY_R: 0.9 g
  KIDNEY_TOTAL: 1.8 g
  LIVER: 7.9 g
  A/G: 0.9
  ALP: 1265.6 IU/L
  ALT: 38 IU/L
  AST: 75 IU/L
  BUN: 9.4 mg/dL
  CRE: 0.1 mg/dL
  Ca: 10.6 mg/dL
  Cl: 105.4 meq/L
  DBIL: 0.012 mg/dL
  GLC: 176.2 mg/dL
  IP: 10.1 mg/dL
  K: 4.2 meq/L
  LDH: 55.4 IU/L
  Na: 142 meq/L
  PL: 129.4 mg/dL
  RALB: 2.5 g/dL
  TBIL: 0.068 mg/dL
  TC: 76.8 mg/dL
  TG: 21 mg/dL
  TP: 5.4 g/dL
  gamma-GTP: 1 IU/L
[4]
  TERMINAL_BW: 204.1 g
  APTT: 15.6 s
  Bas: 0.2%
  Eos: 0.8%
  Fbg: 275.8 mg/dL
  Hb: 13.1 g/dL
  Ht: 40.4%
  Lym: 80.2%
  MCH: 21.6 pg
  MCHC: 32.6%
  MCV: 66.3 fL
  Mono: 2.6%
  Neu: 15.8%
  PT: 16 s
  Plat: 114.8 x10_4/uL
  RBC: 609.2 x10_4/ul
  Ret: 7.1%
  WBC: 63.9 x10_2/uL
  KIDNEY_L: 0.9 g
  KIDNEY_R: 0.9 g
  KIDNEY_TOTAL: 1.8 g
  LIVER: 9.3 g
  A/G: 0.9
  ALP: 1738.8 IU/L
  ALT: 43.4 IU/L
  AST: 71 IU/L
  BUN: 14.8 mg/dL
  CRE: 0.1 mg/dL
  Ca: 11.2 mg/dL
  Cl: 106.6 meq/L
  DBIL: 0.014 mg/dL
  GLC: 176.8 mg/dL
  IP: 7.6 mg/dL
  K: 4.5 meq/L
  LDH: 64.4 IU/L
  Na: 141.4 meq/L
  PL: 147.8 mg/dL
  RALB: 2.6 g/dL
  TBIL: 0.056 mg/dL
  TC: 75.2 mg/dL
  TG: 75.4 mg/dL
  TP: 5.7 g/dL
  gamma-GTP: 0.8 IU/L
10 mg/kg, 3 h, dose level Low
  TERMINAL_BW: 192.7 g
  APTT: 15.4 s
  Bas: 0.4%
  Eos: 0.6%
  Fbg: 276.8 mg/dL
  Hb: 12.7 g/dL
  Ht: 39.3%
  Lym: 80.6%
  MCH: 21.7 pg
  MCHC: 32.3%
  MCV: 67 fL
  Mono: 2.6%
  Neu: 15.2%
  PT: 15.1 s
  Plat: 113 x10_4/uL
  RBC: 587.8 x10_4/ul
  Ret: 9.1%
  WBC: 89.2 x10_2/uL
  KIDNEY_L: 0.8 g
  KIDNEY_R: 0.9 g
  KIDNEY_TOTAL: 1.7 g
  LIVER: 9 g
  A/G: 0.8
  ALP: 1362.6 IU/L
  ALT: 43.4 IU/L
  AST: 75.6 IU/L
  BUN: 11.2 mg/dL
  CRE: 0.2 mg/dL
  Ca: 11.1 mg/dL
  Cl: 105.2 meq/L
  DBIL: 0.016 mg/dL
  GLC: 176.6 mg/dL
  IP: 9.4 mg/dL
  K: 4.4 meq/L
  LDH: 80.4 IU/L
  Na: 141.6 meq/L
  PL: 137.2 mg/dL
  RALB: 2.4 g/dL
  TBIL: 0.064 mg/dL
  TC: 74.6 mg/dL
  TG: 46.2 mg/dL
  TP: 5.3 g/dL
  gamma-GTP: 1 IU/L
10 mg/kg, 6 h, dose level Low
  TERMINAL_BW: 193.5 g
  APTT: 15.7 s
  Bas: 0%
  Eos: 0.8%
  Fbg: 285.2 mg/dL
  Hb: 12.8 g/dL
  Ht: 40.3%
  Lym: 75.8%
  MCH: 21.3 pg
  MCHC: 31.8%
  MCV: 67.1 fL
  Mono: 2.6%
  Neu: 20.2%
  PT: 15.2 s
  Plat: 114.7 x10_4/uL
  RBC: 601.2 x10_4/ul
  Ret: 9.2%
  WBC: 77.4 x10_2/uL
  KIDNEY_L: 0.9 g
  KIDNEY_R: 0.9 g
  KIDNEY_TOTAL: 1.7 g
  LIVER: 8.1 g
  A/G: 0.9
  ALP: 1554.6 IU/L
  ALT: 46.8 IU/L
  AST: 83.2 IU/L
  BUN: 9 mg/dL
  CRE: 0.2 mg/dL
  Ca: 10.9 mg/dL
  Cl: 106.2 meq/L
  DBIL: 0.006 mg/dL
  GLC: 175.2 mg/dL
  IP: 10.1 mg/dL
  K: 4.3 meq/L
  LDH: 80.2 IU/L
  Na: 142.8 meq/L
  PL: 139.4 mg/dL
  RALB: 2.5 g/dL
  TBIL: 0.062 mg/dL
  TC: 78.8 mg/dL
  TG: 32.4 mg/dL
  TP: 5.3 g/dL
  gamma-GTP: 0.8 IU/L
10 mg/kg, 9 h, dose level Low
  TERMINAL_BW: 190.5 g
  APTT: 16.2 s
  Bas: 0%
  Eos: 0.4%
  Fbg: 288.8 mg/dL
  Hb: 12.8 g/dL
  Ht: 39.6%
  Lym: 71.2%
  MCH: 21.3 pg
  MCHC: 32.3%
  MCV: 65.7 fL
  Mono: 3%
  Neu: 24%
  PT: 15.2 s
  Plat: 118.3 x10_4/uL
  RBC: 601.8 x10_4/ul
  Ret: 8.2%
  WBC: 63.8 x10_2/uL
  KIDNEY_L: 0.9 g
  KIDNEY_R: 0.8 g
  KIDNEY_TOTAL: 1.7 g
  LIVER: 7.9 g
  A/G: 0.8
  ALP: 1271.4 IU/L
  ALT: 37.4 IU/L
  AST: 70.2 IU/L
  BUN: 9.2 mg/dL
  CRE: 0.2 mg/dL
  Ca: 10.7 mg/dL
  Cl: 106.8 meq/L
  DBIL: 0.012 mg/dL
  GLC: 184.6 mg/dL
  IP: 10.2 mg/dL
  K: 4.1 meq/L
  LDH: 78.8 IU/L
  Na: 142.4 meq/L
  PL: 139.4 mg/dL
  RALB: 2.5 g/dL
  TBIL: 0.062 mg/dL
  TC: 81.4 mg/dL
  TG: 29.4 mg/dL
  TP: 5.5 g/dL
  gamma-GTP: 1 IU/L
10 mg/kg, 24 h, dose level Low
  TERMINAL_BW: 210.3 g
  APTT: 15 s
  Bas: 0%
  Eos: 1%
  Fbg: 276.8 mg/dL
  Hb: 12.7 g/dL
  Ht: 39.6%
  Lym: 73.4%
  MCH: 21.9 pg
  MCHC: 32%
  MCV: 68.5 fL
  Mono: 2.8%
  Neu: 22.6%
  PT: 16 s
  Plat: 121.3 x10_4/uL
  RBC: 578.6 x10_4/ul
  Ret: 8.8%
  WBC: 79 x10_2/uL
  KIDNEY_L: 0.9 g
  KIDNEY_R: 0.9 g
  KIDNEY_TOTAL: 1.8 g
  LIVER: 10.1 g
  A/G: 0.9
  ALP: 1714.2 IU/L
  ALT: 45.2 IU/L
  AST: 71.4 IU/L
  BUN: 14.2 mg/dL
  CRE: 0.2 mg/dL
  Ca: 11.4 mg/dL
  Cl: 106 meq/L
  DBIL: 0.02 mg/dL
  GLC: 177.6 mg/dL
  IP: 8.2 mg/dL
  K: 4.3 meq/L
  LDH: 104.2 IU/L
  Na: 142.8 meq/L
  PL: 147.4 mg/dL
  RALB: 2.6 g/dL
  TBIL: 0.058 mg/dL
  TC: 77.2 mg/dL
  TG: 69.4 mg/dL
  TP: 5.6 g/dL
  gamma-GTP: 1 IU/L
